By IC50 is commonly meant the concentration needed to halve the response being measured.

The structures appear in SMILES notation. Like-named read-outs stand apart in the source and are kept apart here.

The values below come from patent US11370763B2, “Compounds and compositions for treating conditions associated with NLRP activity” (Novartis AG, priority 2017, dated 2022).

For the assay, the system named is IL-1β production in PMA-differentiated THP-1 cells. The experiment in a line: IL-1β production in PMA-differentiated THP-1 cells stimulated with gramicidin (hTHP-1 assay containing 2% fetal bovine serum; Procedures 1-3). Type of assay: cell-based, human. Particulars: read-out: hTHP-1 IC50 (Average IC50 of compounds in hTHP-1 assay). The method, then: The following protocol is suitable for testing the activity of the compounds disclosed herein.
Procedure 1: IL-1β Production in PMA-Differentiated THP-1 Cells Stimulated with Gramicidin
THP-1 cells were purchased from the American Type Culture Collection and sub-cultured according to instructions from the supplier. Cells were cultured in complete RPMI 1640 (containing 10% heat inactivated FBS, penicillin (100 units/ml) and streptomycin (100 μg/ml)), and maintained in log phase prior to experimental setup. Prior to the experiment, compounds were dissolved in dimethyl sulfoxide (DMSO) to generate a 30 mM stock. The compound stock was first pre-diluted in DMSO to 3, 0.34, 0.042 and 0.0083 mM intermediate concentrations and subsequently spotted using Echo550 liquid handler into an empty 384-well assay plate to achieve desired final concentration (e.g. 100, 33, 11, 3.7, 1.2, 0.41, 0.14, 0.046, 0.015, 0.0051, 0.0017 μM). DMSO was backfilled in the plate to achieve a final DMSO assay concentration of 0.37%. The plate was then sealed and stored at room temperature until required.
THP-1 cells were treated with PMA (Phorbol 12-myristate 13-acetate) (20 ng/ml) for 16-18 hours. On the day of the experiment the media was removed and adherent cells were detached with trypsin for 5 minutes. Cells were then harvested, washed with complete RPMI 1640, spun down, and resuspended in RPMI 1640 (containing 2% heat inactivated FBS, penicillin (100 units/ml) and streptomycin (100 μg/ml). The cells were plated in the 384-well assay plate containing the spotted compounds at a density of 50,000 cells/well (final assay volume 50 μl). Cells were incubated with compounds for 1 hour and then stimulated with gramicidin (5 μM) (Enzo) for 2 hours. Plates were then centrifuged at 340 g for 5 min. Cell free supernatant (40 μL) was collected using a 96-channel PlateMaster (Gilson) and the production of IL-1β was evaluated by HTRF (cisbio). The plates were incubated for 18 h at 4° C. and read using the preset HTRF program (donor emission at 620 nm, acceptor emission at 668 nm) of the SpectraMax i3x spectrophotometer (Molecular Devices, software SoftMax 6). A vehicle only control and a dose titration of CRID3 (100-0.0017 μM) were run concurrently with each experiment.
Procedure 2: IL-1β Production in PMA-Differentiated THP-1 Cells Stimulated with Gramicidin
THP-1 cells were purchased from the American Type Culture Collection and sub-cultured according to instructions from the supplier. Prior to experiments, cells were cultured in complete RPMI 1640 (containing 10% heat inactivated FBS, penicillin (100 units/ml) and streptomycin (100 μg/ml)), and maintained in log phase prior to experimental setup. Prior to the experiment THP-1 were treated with PMA (Phorbol 12-myristate 13-acetate) (20 ng/ml) for 16-18 hours. Compounds were dissolved in dimethyl sulfoxide (DMSO) to generate a 30 mM stock. On the day of the experiment the media was removed and adherent cells were detached with trypsin for 5 minutes. Cells were then harvested, washed with complete RPMI 1640, spun down, resuspended in RPMI 1640 (containing 2% heat inactivated FBS, penicillin (100 units/ml) and streptomycin (100 μg/ml). The cells were plated in a 384-well plate at a density of 50,000 cells/well (final assay volume 50 μl). Compounds were first dissolved in assay medium to obtain a 5× top concentration of 500 μM. 10 step dilutions (1:3) were then undertaken in assay medium containing 1.67% DMSO. 5× compound solutions were added to the culture medium to achieve desired final concentration (e.g. 100, 33, 11, 3.7, 1.2, 0.41, 0.14, 0.046, 0.015, 0.0051, 0.0017 μM). Final DMSO concentration was at 0.37%. Cells were incubated with compounds for 1 hour and then stimulated with gramicidin (5 μM) (Enzo) for 2 hours. Plates were then centrifuged at 340 g for 5 min. Cell free supernatant (40 μL) was collected using a 96-channel PlateMaster (Gilson) and the production of IL-1β was evaluated by HTRF (cisbio). […]

Setting [1] is: Homo sapiens, THP-1, hTHP-1 assay containing 2% fetal bovine serum, class symbols.
Where [2] appears, read: hTHP-1 assay containing 2% fetal bovine serum, class symbols.
The mark [3] stands for this setting: Homo sapiens, THP-1, hTHP-1 assay containing 2% fetal bovine serum, given as numeric bound.

Turning to `CC(C)c1cc(C#N)cc(C2CC2)c1CC(=O)N=S(N)(=O)c1ccc(CN(C)C)cc1` (single isomer, unassigned) [Example 75, (R)- or (S)-2-(4-cyano-2-cyclopropyl-6-isopropylphenyl)-N-(4-((dimethylamino)methyl)phenyl-sulfonimidoyl)acetamide], the half-maximal inhibitory concentration (IC50) under setting [1] was 1000 to 5000 nM.
On to `CC(C)c1cc(OC(F)F)cc(C(C)C)c1CC(=O)N=S(N)(=O)c1sc(C(C)(C)O)cc1F` (single isomer, unassigned) [Example 76, (S)- or (R)-2-(4-(difluoromethoxy)-2,6-diisopropylphenyl)-N-(3-fluoro-5-(2-hydroxypropan-2-yl)thiophen-2-ylsulfonimidoyl)acetamide], for which the IC50 under setting [2] was 40 to 200 nM.
For the compound `CCc1cc(OC(F)F)cc(C(C)C)c1CC(=O)N=S(N)(=O)c1sc(C(C)(C)O)cc1F` (single isomer, unassigned) [Example 78, (S)- or (R)-2-(4-(difluoromethoxy)-2-ethyl-6-isopropylphenyl)-N-(3-fluoro-5-(2-hydroxypropan-2-yl)thiophen-2-ylsulfonimidoyl)acetamide], the IC50 under setting [2] was 200 to 1000 nM.
Consider `CC(C)c1cc(C#N)cc(C(C)C)c1CC(=O)N=S(N)(=O)c1ccc(C(C)(C)O)cc1Cl` (single isomer, unassigned) [Example 155, (R) or (S)-N-(amino(2-chloro-4-(2-hydroxypropan-2-yl)phenyl)(oxo)-λ^6-sulfaneylidene)-2-(4-cyano-2,6-diisopropylphenyl)acetamide], for which the IC50 under setting [1] lay in the range of 200 to 1000 nM.
Take `CC(C)c1cc(C#N)cc(C(C)C)c1CC(=O)N=S(N)(=O)c1ccc(C(C)(C)O)cc1Cl` (single isomer, unassigned) [Example 156, (S) or (R)-N-(amino(2-chloro-4-(2-hydroxypropan-2-yl)phenyl)(oxo)-λ^6-sulfaneylidene)-2-(4-cyano-2,6-diisopropylphenyl)acetamide]: under setting [2], the IC50 was 200 to 1000 nM.
As to `CC(C)c1ccc(F)c(C(C)C)c1CC(=O)N=S(N)(=O)c1cc(C(C)(C)O)cs1` (single isomer, unassigned) [Example 159, (R) or (S)-N-(amino(4-(2-hydroxypropan-2-yl)thiophen-2-yl)(oxo)-λ^6-sulfaneylidene)-2-(3-fluoro-2,6-diisopropylphenyl)acetamide], the IC50 under setting [2] was 40 to 200 nM.
The same measure, in the same setting: in the case of `CC(C)c1cc(-c2ccc3c(c2)OC(F)(F)O3)cc(C(C)C)c1CC(=O)N=S(N)(=O)c1ncc(C(C)(C)O)s1` (single isomer, unassigned) [Example 166, (R) or (S)-N-(amino(5-(2-hydroxypropan-2-yl)thiazol-2-yl)(oxo)-λ^6-sulfaneylidene)-2-(4-(2,2-difuorobenzo[d][1,3]dioxol-5-yl)-2,6-diisopropylphenyl)acetamide] it was 40 to 200 nM; in that of `Cc1ccc(-c2cc(C(C)C)c(CC(=O)N=S(N)(=O)c3ncc(C(C)(C)O)s3)c(C(C)C)c2)cc1C` (single isomer, unassigned) [Example 168, (R) or (S)-N-(amino(5-(2-hydroxypropan-2-yl)thiazol-2-yl)(oxo)-λ^6-sulfaneylidene)-2-(3,5-diisopropyl-3′,4′-dimethyl-[1,1′-biphenyl]-4-yl)acetamide], 200 to 1000 nM.
In the case of `CC(C)c1cc(-c2ccc(Cl)c(Cl)c2)cc(C(C)C)c1CC(=O)N=S(N)(=O)c1ncc(C(C)(C)O)s1` (single isomer, unassigned) [Example 170, (R) or (S)-N-(amino(5-(2-hydroxypropan-2-yl)thiazol-2-yl)(oxo)-λ^6-sulfaneylidene)-2-(3′,4′-dichloro-3,5-diisopropyl-[1,1′-biphenyl]-4-yl)acetamide], the half-inhibitory concentration (IC50) under setting [2] was in the range of 200 to 1000 nM.
Take `CC(C)c1cc(-c2ccc3c(c2)COCC3)cc(C(C)C)c1CC(=O)N=S(N)(=O)c1cnc(C(C)(C)O)s1` (single isomer, unassigned) [Example 171, (R) or (S)-N-(amino(2-(2-hydroxypropan-2-yl)thiazol-5-yl)(oxo)-λ^6-sulfaneylidene)-2-(4-(isochroman-7-yl)-2,6-diisopropylphenyl)acetamide]: the IC50 under setting [2] is 200 to 1000 nM.
Same read-out and setting: for `CC(C)c1ccc(F)c(C(C)C)c1CC(=O)N=S(N)(=O)c1ccc(C(C)(C)O)s1` (single isomer, unassigned) [Example 176, (R) or (S)-N-(amino(5-(2-hydroxypropan-2-yl)thiophen-2-yl)(oxo)-λ^6-sulfaneylidene)-2-(3-fluoro-2,6-diisopropylphenyl)acetamide] the value was 200 to 1000 nM; for `CC(C)c1ccc(C#N)c(C(C)C)c1CC(=O)N=S(N)(=O)c1nc(C(C)(C)O)cs1` (single isomer, unassigned) [Example 179, (R) or (S)-N-(amino(4-(2-hydroxypropan-2-yl)thiazol-2-yl)(oxo)-λ^6-sulfaneylidene)-2-(3-cyano-2,6-diisopropylphenyl)acetamide], 200 to 1000 nM.
On the same count and under the same terms, for `COCc1cc(C(C)C)c(CC(=O)N=S(N)(=O)c2ncc(C(C)(C)O)s2)c(C(C)C)c1` (single isomer, unassigned) [Example 185, (R) or (S)-N-(amino(5-(2-hydroxypropan-2-yl)thiazol-2-yl)(oxo)-λ^6-sulfaneylidene)-2-(2,6-diisopropyl-4-(methoxymethyl)phenyl) acetamide] the value was 40 to 200 nM.
`CC(C)c1cc2c(c(C(C)C)c1CC(=O)N=S(N)(=O)c1ccc(CN(C)C)cc1)COC2` (single isomer, unassigned) [Example 191, (R) or (S)-N-(amino(4-((dimethylamino)methyl)phenyl) (oxo)-λ^6-sulfaneylidene)-2-(4,6-diisopropyl-1,3-dihydroisobenzofuran-5-yl)acetamide]: the half-inhibitory concentration (IC50) under setting [1] was 1000 to 5000 nM.
Consider `CC(C)c1cc2c(c(C(C)C)c1CC(=O)N=S(N)(=O)c1ccc(CN(C)C)cc1)COC2` (single isomer, unassigned) [Example 192, (S) or (R)-N-(amino(4-((dimethylamino)methyl)phenyl) (oxo)-λ^6-sulfaneylidene)-2-(4,6-diisopropyl-1,3-dihydroisobenzofuran-5-yl)acetamide], for which the IC50 under setting [3] is greater than 30000 nM.
As for `CC(C)c1cc(F)cc(C(C)C)c1C(C)C(=O)N=S(N)(=O)c1cnc(C(C)(C)O)s1` (single isomer, unassigned) [Example 194, (R, S) or (R, R)-N-(amino(2-(2-hydroxypropan-2-yl)thiazol-5-yl)(oxo)-λ^6-sulfaneylidene)-2-(4-fluoro-2,6-diisopropylphenyl) propanamide], the 50% inhibitory concentration (IC50) under setting [1] is 5000 to 30000 nM.
Regarding `CC(C)c1cc(F)cc(C(C)C)c1C(C)C(=O)N=S(N)(=O)c1cnc(C(C)(C)O)s1` (single isomer, unassigned) [Example 195, (R, R) or (R, S)-N-(amino(2-(2-hydroxypropan-2-yl)thiazol-5-yl)(oxo)-λ^6-sulfaneylidene)-2-(4-fluoro-2,6-diisopropylphenyl) propanamide], the IC50 under setting [3] was greater than 30000 nM.
As for `CC(C)(O)c1ncc(S(N)(=O)=NC(=O)Cc2c(C3CC3)cc(F)cc2C(F)(F)F)s1` (single isomer, unassigned) [Example 196, (R) or (S)-N-(amino(2-(2-hydroxypropan-2-yl)thiazol-5-yl)(oxo)-λ^6-sulfaneylidene)-2-(2-cyclopropyl-4-fluoro-6-(trifluoromethyl)phenyl) acetamide], the half-inhibitory concentration (IC50) under setting [1] lay in the range of 5000 to 30000 nM.
